Test results published in patent US4440786A, “Compounds with antiinflammatory and analgesic activity, process for the preparation thereof and pharmaceutical compositio ns therefrom” (Ausonia Farmaceutici s.r.l., priority 1981, dated 1984).
Entries after “also recorded” stand apart in the source; their conditions may differ. Like-named read-outs stand apart in the source and are kept apart here.

Columns and labels:
[1] = Subplantar edema caused by carrageenan (antiinflammatory activity); type: in vivo; design: Volume of Paw in No. of Hours after the Treatment: 0 / Volume of Paw in No. of Hours after the Treatment: 1 / Volume of Paw in No. of Hours after the Treatment: 2 / Volume of Paw in No. of Hours after the Treatment: 3 / Volume of Paw in No. of Hours after the Treatment: 4 / Volume of Paw in No. of Hours after the Treatment: 5: dose or concentration left out as unconfirmed; settings: rats, oral; for AREA % Inhibition vs. Control / AREA Absolute Value: paw volume 0-5 h, acetylsalicylic acid 250, ibuprofen 100, paracetamol 100, diflunisal 25, MR 713 25 mg/kg
From the text: The experiments have been carried out with rats and carrageenan has been used as the agent causing edema.
Subplantar Edema Caused by Carrageenan in Rats

[2] = Contorsions caused by phenylquinone (analgesic activity); type: in vivo; settings: mice, oral; phenylquinone 30 min after; acetylsalicylic acid 250, ibuprofen 100, paracetamol 100, diflunisal 25, MR 713 25 mg/kg
From the text: The analgesic activity has been tested in mice using the contorsion test caused by phenylquinone. […] Phenylquinone has been administered thirty minutes after the substance under test and the results obtained are reported in Table II.
Contorsions Caused by Phenylquinone in Mice

Solubility = type: physicochemical
[3] = Plasmatic levels half-life, oral; type: in vivo; settings: rats, at equal dose
Experimental: The pharmacodynamic tests carried out in rats and administering MR 713 by the oral route in the doses of 25, 50, and 100 mg/kg, show a half-life time of plasmatic levels, which is possible to calculate in the dose of 25 mg/kg, of about eleven hours. […] The pharmacodynamic tests permit to administer one or at the most two daily doses of MR 713.

Acute toxicity, oral = type: in vivo; settings: mice
[4] = rats fasted 18 h, oral, 6 h, MR 713 25 mg/kg

Row | Structure (SMILES) | AREA % Inhibition vs. Control [1] | AREA Absolute Value [1] | Average Size of Ulcer in mm (rat, in vivo, po, 25 mg/kg) | % Inhibition vs. Controls (contorsions) [2] | Average No. of Contorsions [2] | No. of Animals with Contorsions [2] | gastric lesions / gastric tolerability [4] | other results
1 | O=C(O)c1cc(-c2ccc(F)cc2F)ccc1O [Diflunisal, diflunisal] | 30.0% | 190.7 | 0.7 ± 0.4 mm | 99.1% | 0.2 ± 0.2 | 1/9 |  | Volume of Paw in No. of Hours after the Treatment: 0 ([1]; 0 h): 21.2; Volume of Paw in No. of Hours after the Treatment: 1 ([1]; 1 h): 25.6; Volume of Paw in No. of Hours after the Treatment: 2 ([1]; 2 h): 29.7; Volume of Paw in No. of Hours after the Treatment: 3 ([1]; 3 h): 31.0; Volume of Paw in No. of Hours after the Treatment: 4 ([1]; 4 h): 33.4; Volume of Paw in No. of Hours after the Treatment: 5 ([1]; 5 h): 33.1
2 | CC(C)Cc1ccc(C(C)C(=O)O)cc1 (stereo not shown) [Ibuprofen, ibuprofen] | 40.0% | 163.7 | 2.3 ± 0.7 mm | 99.1% | 0.2 ± 0.1 | 2/10 | cause gastric lesions | 
3 | O=C(O)COc1ccc(-c2ccc(F)cc2F)cc1 [MR 713, (2',4'-difluoro-4-biphenyl)oxyacetic acid] | 31.0% | 186.4 | 0.3 ± 0.1 mm | 54.0% | 10.8 ± 2.8 | 9/10 |  | solubility in chlorinated hydrocarbons (Solubility; chlorinated hydrocarbons): insoluble; solubility in hot lower alcohols (Solubility; hot lower alcohols): soluble; solubility in water (Solubility; water): essentially insoluble; antiinflammatory activity compared with reference drugs ([1]; MR 713 25 mg/kg, vs diflunisal same dose, paracetamol and ibuprofen four times larger dose, acetylsalicylic acid ten times larger dose, 25 mg/kg): essentially the same as diflunisal; also recorded: substantially superior to paracetamol even when the latter is used in doses four times larger; also recorded: lower than that of ibuprofen; also recorded: essentially equivalent to the activity of acetylsalicylic acid; gastric lesions / gastric tolerability (rat, in vivo, po, 25 mg/kg): causes even less gastric lesions as compared with drugs which are well-known to be tolerated at the gastric level, such as paracetamol and diflunisal; half-life time of plasmatic levels, compared with other drugs [3]: substantially superior to the action of diflunisal; acute toxicity (Acute toxicity, oral): very low acute toxicity; LD50 (Acute toxicity, oral; mouse, in vivo, body weight, read-out: DL50 (the source's name)): 790 mg/kg
4 | CC(=O)Nc1ccc(O)cc1 [Paracetamol, p-acetylaminophenol] | 10.0% | 245.7 | 0.6 ± 0.4 mm | 63.4% | 8.6 ± 3.3 | 5/10 |  | 
5 | CC(=O)Oc1ccccc1C(=O)O [acetylsalicylic acid, acetyl salicylic acid] | 33.0% | 182.4 | 3.7 ± 0.8 mm | 100% | 0 | 0/10 | cause gastric lesions | 
